Measured values from PubChem BioAssay (NCI).
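1) Cells in 96-well plates. 2) Compound, 48 h, 5 concentrations. 3) Linear interpolation between surrounding doses. 4) Unreached endpoint = highest concentration. TGI denotes the concentration required for complete inhibition of growth.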 *1 amine or outer side, *2 acyl side, *3 side chain or, on linkers, in order; H or OH if unused. Where a SMILES comes first, the peptide text is derived from it. [ ]: non-standard residue; d: D form. The star is where a group is joined. ξ: configuration not given here. X53 = CC(C)C[C@H](N[*:1])C1=N[C@H](C(=O)[*:2])CS1; Ile(3ξ) = CCC(C)[C@H](N)C(=O)O; Allyl(1,1-Me2) = C=CC(C)(C)*

Key:
Assay in all cases: NCI tumour cell line growth inhibition, 48 h
HCC-2998 colon = tested on: HCC-2998 colon
RPMI-8226 leukemia = tested on: RPMI-8226 leukemia
MOLT-4 leukemia = tested on: MOLT-4 leukemia
MDA-N = tested on: MDA-N
KM12 colon = tested on: KM12 colon
T-47D breast = tested on: T-47D breast
ACHN renal = tested on: ACHN renal
HL-60(TB) leukemia = tested on: HL-60(TB) leukemia
K-562 leukemia = tested on: K-562 leukemia
TK-10 renal = tested on: TK-10 renal
M14 melanoma = tested on: M14 melanoma
SK-MEL-2 melanoma = tested on: SK-MEL-2 melanoma
HS 578T breast = tested on: HS 578T breast
CAKI-1 renal = tested on: CAKI-1 renal
HOP-92 NSCLC = tested on: HOP-92 NSCLC
HT29 colon = tested on: HT29 colon
PC-3 prostate = tested on: PC-3 prostate
CCRF-CEM leukemia = tested on: CCRF-CEM leukemia
U251 CNS = tested on: U251 CNS
SNB-75 CNS = tested on: SNB-75 CNS
NCI-H226 lung = tested on: NCI-H226 lung
MDA-MB-231 breast = tested on: MDA-MB-231 breast
A498 renal = tested on: A498 renal
SF-268 CNS = tested on: SF-268 CNS
A549 NSCLC = tested on: A549 NSCLC
OVCAR-3 ovarian = tested on: OVCAR-3 ovarian
COLO 205 colon = tested on: COLO 205 colon
SK-OV-3 ovarian = tested on: SK-OV-3 ovarian
UACC-62 melanoma = tested on: UACC-62 melanoma
RXF 393 renal = tested on: RXF 393 renal
DU-145 prostate = tested on: DU-145 prostate
SN12C renal = tested on: SN12C renal
HOP-62 NSCLC = tested on: HOP-62 NSCLC
OVCAR-8 ovarian = tested on: OVCAR-8 ovarian
NCI-H522 lung = tested on: NCI-H522 lung
BT-549 breast = tested on: BT-549 breast
OVCAR-4 ovarian = tested on: OVCAR-4 ovarian
SR leukemia = tested on: SR leukemia
MDA-MB-435 = tested on: MDA-MB-435
LOX IMVI melanoma = tested on: LOX IMVI melanoma
SNB-19 CNS = tested on: SNB-19 CNS
IGROV1 ovarian = tested on: IGROV1 ovarian
UACC-257 melanoma = tested on: UACC-257 melanoma
SK-MEL-5 melanoma = tested on: SK-MEL-5 melanoma
NCI/ADR-RES ovarian = tested on: NCI/ADR-RES ovarian
786-0 renal = tested on: 786-0 renal
EKVX NSCLC = tested on: EKVX NSCLC
SF-295 CNS = tested on: SF-295 CNS
HCT-116 colon = tested on: HCT-116 colon
HCT-15 colon = tested on: HCT-15 colon
UO-31 renal = tested on: UO-31 renal
MCF7 breast = tested on: MCF7 breast
MALME-3M melanoma = tested on: MALME-3M melanoma
OVCAR-5 ovarian = tested on: OVCAR-5 ovarian
SF-539 CNS = tested on: SF-539 CNS
NCI-H23 lung = tested on: NCI-H23 lung
NCI-H460 lung = tested on: NCI-H460 lung
SW-620 colon = tested on: SW-620 colon
SK-MEL-28 melanoma = tested on: SK-MEL-28 melanoma

C=CC(C)(C)OC[C@@H]1NC(=O)CNC(=O)[C@@H]2CCCN2C(=O)[C@H](C(C)CC)NC(=O)[C@@H]2CSC(=N2)[C@H](CC(C)C)NC1=O (some centres not stated) (cyclo(GS(Allyl(1,1-Me2))[X53][Ile(3ξ)]P))
TGI (HCC-2998 colon): > 100 µM | TGI (RPMI-8226 leukemia): 94.1 µM | TGI (MOLT-4 leukemia): 76.1 µM | TGI (MDA-N): > 100 µM | TGI (KM12 colon): > 100 µM | TGI (T-47D breast): > 100 µM | TGI (ACHN renal): > 100 µM | TGI (HL-60(TB) leukemia): 64.4 µM | TGI (K-562 leukemia): > 100 µM | TGI (TK-10 renal): > 100 µM | TGI (M14 melanoma): > 100 µM | TGI (SK-MEL-2 melanoma): > 100 µM | TGI (HS 578T breast): > 100 µM | TGI (CAKI-1 renal): > 100 µM | TGI (HOP-92 NSCLC): > 100 µM | TGI (HT29 colon): > 100 µM | TGI (PC-3 prostate): > 100 µM | TGI (CCRF-CEM leukemia): > 100 µM | TGI (U251 CNS): > 100 µM | TGI (SNB-75 CNS): > 100 µM | TGI (NCI-H226 lung): > 100 µM | TGI (MDA-MB-231 breast): > 100 µM | TGI (A498 renal): > 100 µM | TGI (SF-268 CNS): > 100 µM | TGI (A549 NSCLC): > 100 µM | TGI (OVCAR-3 ovarian): > 100 µM | TGI (COLO 205 colon): > 100 µM | TGI (SK-OV-3 ovarian): > 100 µM | TGI (UACC-62 melanoma): > 100 µM | TGI (RXF 393 renal): > 100 µM | TGI (DU-145 prostate): > 100 µM | TGI (SN12C renal): > 100 µM | TGI (HOP-62 NSCLC): > 100 µM | TGI (OVCAR-8 ovarian): > 100 µM | TGI (NCI-H522 lung): > 100 µM | TGI (BT-549 breast): > 100 µM | TGI (OVCAR-4 ovarian): > 100 µM | TGI (SR leukemia): > 100 µM | TGI (MDA-MB-435): > 100 µM | TGI (LOX IMVI melanoma): > 100 µM | TGI (SNB-19 CNS): > 100 µM | TGI (IGROV1 ovarian): > 100 µM | TGI (UACC-257 melanoma): > 100 µM | TGI (SK-MEL-5 melanoma): > 100 µM | TGI (NCI/ADR-RES ovarian): > 100 µM | TGI (786-0 renal): > 100 µM | TGI (EKVX NSCLC): > 100 µM | TGI (SF-295 CNS): > 100 µM | TGI (HCT-116 colon): > 100 µM | TGI (HCT-15 colon): > 100 µM | TGI (UO-31 renal): > 100 µM | TGI (MCF7 breast): > 100 µM | TGI (MALME-3M melanoma): > 100 µM | TGI (OVCAR-5 ovarian): > 100 µM | TGI (SF-539 CNS): > 100 µM | TGI (NCI-H23 lung): > 100 µM | TGI (NCI-H460 lung): > 100 µM

C1CSC2=C(S1)SC1=C(S2)SC(=C2SC3=C(SC4=C(SCCS4)S3)S2)S1
TGI (HCC-2998 colon): > 100 µM | TGI (RPMI-8226 leukemia): > 100 µM | TGI (MOLT-4 leukemia): > 100 µM | TGI (MDA-N): > 100 µM | TGI (KM12 colon): > 100 µM | TGI (T-47D breast): > 100 µM | TGI (ACHN renal): > 100 µM | TGI (HL-60(TB) leukemia): > 100 µM | TGI (K-562 leukemia): > 100 µM | TGI (TK-10 renal): > 100 µM | TGI (M14 melanoma): > 100 µM | TGI (SK-MEL-2 melanoma): > 100 µM | TGI (HS 578T breast): > 100 µM | TGI (CAKI-1 renal): > 100 µM | TGI (HOP-92 NSCLC): > 100 µM | TGI (HT29 colon): > 100 µM | TGI (PC-3 prostate): > 100 µM | TGI (CCRF-CEM leukemia): > 100 µM | TGI (U251 CNS): > 100 µM | TGI (SNB-75 CNS): > 100 µM | TGI (NCI-H226 lung): > 100 µM | TGI (SW-620 colon): > 100 µM | TGI (MDA-MB-231 breast): > 100 µM | TGI (A498 renal): > 100 µM | TGI (SF-268 CNS): > 100 µM | TGI (A549 NSCLC): > 100 µM | TGI (OVCAR-3 ovarian): > 100 µM | TGI (COLO 205 colon): > 100 µM | TGI (SK-OV-3 ovarian): > 100 µM | TGI (SK-MEL-28 melanoma): > 100 µM | TGI (UACC-62 melanoma): > 100 µM | TGI (RXF 393 renal): > 100 µM | TGI (DU-145 prostate): > 100 µM | TGI (SN12C renal): > 100 µM | TGI (HOP-62 NSCLC): > 100 µM | TGI (OVCAR-8 ovarian): > 100 µM | TGI (NCI-H522 lung): > 100 µM | TGI (BT-549 breast): > 100 µM | TGI (OVCAR-4 ovarian): > 100 µM | TGI (SR leukemia): > 100 µM | TGI (MDA-MB-435): > 100 µM | TGI (SNB-19 CNS): > 100 µM | TGI (IGROV1 ovarian): > 100 µM | TGI (UACC-257 melanoma): > 100 µM | TGI (SK-MEL-5 melanoma): > 100 µM | TGI (NCI/ADR-RES ovarian): > 100 µM | TGI (786-0 renal): > 100 µM | TGI (EKVX NSCLC): > 100 µM | TGI (SF-295 CNS): > 100 µM | TGI (HCT-116 colon): > 100 µM | TGI (HCT-15 colon): > 100 µM | TGI (UO-31 renal): > 100 µM | TGI (MCF7 breast): > 100 µM | TGI (MALME-3M melanoma): > 100 µM | TGI (OVCAR-5 ovarian): > 100 µM | TGI (SF-539 CNS): > 100 µM | TGI (NCI-H23 lung): > 100 µM | TGI (NCI-H460 lung): > 100 µM

Clc1ccc(Cc2nc3cc(Cl)c(Cl)cc3n2CC2CCCN3CCCCC23)cc1Cl (configuration not stated)
TGI (HCC-2998 colon): 3.45 µM | TGI (RPMI-8226 leukemia): > 100 µM | TGI (MOLT-4 leukemia): > 100 µM | TGI (MDA-N): 16.5 µM | TGI (KM12 colon): 7.51 µM | TGI (T-47D breast): 33.4 µM | TGI (ACHN renal): 16.1 µM | TGI (HL-60(TB) leukemia): 5.93 µM | TGI (K-562 leukemia): > 100 µM | TGI (TK-10 renal): 19.5 µM | TGI (M14 melanoma): 4.04 µM | TGI (SK-MEL-2 melanoma): 19.7 µM | TGI (HS 578T breast): 19.2 µM | TGI (CAKI-1 renal): 15.9 µM | TGI (HOP-92 NSCLC): 22.8 µM | TGI (HT29 colon): 6.85 µM | TGI (PC-3 prostate): 14.1 µM | TGI (U251 CNS): 13.7 µM | TGI (SNB-75 CNS): 12 µM | TGI (NCI-H226 lung): 26.8 µM | TGI (SW-620 colon): 4.9 µM | TGI (MDA-MB-231 breast): 7.84 µM | TGI (A498 renal): 21 µM | TGI (SF-268 CNS): 15.8 µM | TGI (A549 NSCLC): 20 µM | TGI (OVCAR-3 ovarian): 33.2 µM | TGI (COLO 205 colon): 4.83 µM | TGI (SK-OV-3 ovarian): 13.4 µM | TGI (SK-MEL-28 melanoma): 10.7 µM | TGI (UACC-62 melanoma): 5.42 µM | TGI (RXF 393 renal): 30.7 µM | TGI (DU-145 prostate): 19.4 µM | TGI (SN12C renal): 15.8 µM | TGI (HOP-62 NSCLC): 24.5 µM | TGI (OVCAR-8 ovarian): 22.6 µM | TGI (NCI-H522 lung): 3.54 µM | TGI (BT-549 breast): 21.4 µM | TGI (OVCAR-4 ovarian): 20.3 µM | TGI (SR leukemia): 7.6 µM | TGI (MDA-MB-435): 17.2 µM | TGI (LOX IMVI melanoma): 6 µM | TGI (SNB-19 CNS): 8.2 µM | TGI (IGROV1 ovarian): 15.4 µM | TGI (UACC-257 melanoma): 10.6 µM | TGI (SK-MEL-5 melanoma): 4.38 µM | TGI (NCI/ADR-RES ovarian): 17.2 µM | TGI (786-0 renal): 12.7 µM | TGI (EKVX NSCLC): 11.1 µM | TGI (SF-295 CNS): 10.5 µM | TGI (HCT-116 colon): 10.7 µM | TGI (HCT-15 colon): 17.1 µM | TGI (UO-31 renal): 1.25 µM | TGI (MCF7 breast): 7.15 µM | TGI (MALME-3M melanoma): 3.91 µM | TGI (OVCAR-5 ovarian): 12.3 µM | TGI (SF-539 CNS): 4.17 µM | TGI (NCI-H460 lung): 9.75 µM
